Columns and labels:
Type in all cases: cell-based
[1] = target: T1, GPR139 (Homo sapiens, UniProt Q6DWJ6); test: IP-One HTRF assay measuring Gq activation in CHO-139; conditions: IP-One HTRF assay, CHO-139, 20 mM LiCl
T1 sequence (Q6DWJ6 1-353): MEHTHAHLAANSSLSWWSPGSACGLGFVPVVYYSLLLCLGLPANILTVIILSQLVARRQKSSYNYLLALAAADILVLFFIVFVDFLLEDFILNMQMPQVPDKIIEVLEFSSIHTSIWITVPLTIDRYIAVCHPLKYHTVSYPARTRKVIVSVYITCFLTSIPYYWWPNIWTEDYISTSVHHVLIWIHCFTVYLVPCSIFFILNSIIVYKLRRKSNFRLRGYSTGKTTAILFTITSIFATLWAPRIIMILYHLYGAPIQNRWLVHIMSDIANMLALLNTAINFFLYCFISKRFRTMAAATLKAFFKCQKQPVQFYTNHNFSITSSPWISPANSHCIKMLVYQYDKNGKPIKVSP
Description: Figure 3 IP-One HTRF® assay measuring Gq activation. Concentration-response curves of 1a, 7c (racemic), L-Trp, L-Phe, DL43, DL126, DL24, DL22, DL132 and DL130 on (A) CHO-139 and (B) CHO-M1 in the IP-One assay (final conc of LiCl = 20 mM). The dotted line represent the [IP1] response from (A) 10 μM 1a and (B) 1 μM carbachol, which is an agonist for the muscarinic acethylcholine receptor M1 that activates the Gq coupled pathway. The graphs are means ± SEM based on three independent experiments performed in triplicates.
The IP-One assay was performed as described in the work by Thomsen et al.[28], with few modifications. Breifly, CHO-139 and CHO-M1 were detached and re-suspended to a concentration of 10 million cells/mL. 5 μL 2x concentrated compound (+40 mM LiCl) and 5 μL cell suspension (50,000 cells/well) was mixed. The plate was sealed and incubated at 37 °C for 1 hour. Next, 10 μL detection reagents (lysis buffer containing 2.5% Eu^3+-anti-IP1 antibody and 2.5% IP1-d2) was added and the plate was incubated for 1 hour at room temperature. The plate was read on an Envision (PerkinElmer, Waltham, MA, USA). The time resolved-fluorescence resonance energy transfer (TR-FRET) 665 nm/615 nm ratio, which is inversely proportional to the inositol monophosphate (IP1) accumulation, was used to determine the concentration of the IP1 response.

[2] = target: T1, GPR139; test: Fluo-4 Ca2+-assay in CHO-k1 cells stably expressing GPR139 (CHO-GPR139); conditions: for EC50: CHO-GPR139, mean of at least three experiments; for Emax: CHO-K1, relative to 1a
Description: Compound 1a[11] was kindly provided by H. Lundbeck A/S, Denmark. Compound 7c (Enamine no: Z31449867) was tested as a racemate, as the (S)-form described by Janssen et al. was not commercially available. All compounds were dissolved to 20 mM in DMSO (Sigma, D2650) and subsequently diluted in a HEPES buffer (HBSS (Invitrogen, 14025) supplemented with 20 mM HEPES + 1 mM MgCl2 + 1 mM CaCl2, pH = 7.4) to a final concentration 0.5% DMSO in the assay. The DMSO level was kept constant for all concentrations of all compounds. DMSO was confirmed not to have any activity by itself at this concentration. L-Tryptophan (T0254) and L-Phenylalanine (P2126) were obtained from Sigma-Aldrich and dissolved directly in buffer.
All compounds were tested on a CHO-k1 cell line stably expressing GPR139 (CHO-GPR139) kindly provided by H. Lundbeck A/S, Denmark, and also on a CHO-k1 cell line stably expressing the M1 receptor (CHO-M1) (The Missouri S&T cDNA Resource Center, #CEM100TN00) to check for specificity. The CHO-GPR139 was grown in Dulbecco’s modified eagle medium (DMEM) F12-Kaighn’s (Gibco, 21127) supplemented with 10% dialysed fetal bovine serum (Gibco, 26400, United States origin), 1% GlutaMAX^TM-I (100X) (Gibco, 35050), and 100 units/mL penicillin and 100 μg/mL streptomycin (Gibco, 15140) and 1.0 mg/mL geneticin (Invitrogen, 1181103). CHO-M1 was grown in Ham’s F12 (Gibco, 21765) supplemented with 10% fetal bovine serum (Gibco, 10270, South America origin) +100 units/mL penicillin and 100 μg/mL streptomycin (Invitrogen, 15140–122) and 0,25 mg/mL geneticin (Life Technologies, 11811–031). Compound 1a and carbamoylcholine chloride (Sigma-Aldrich, C4382) were used as positive controls in the two cell lines, respectively.
30.000 cells/well were plated in black 96-well plates with flat clear bottoms (Corning, Falcon, 353219) and incubated overnight. The Fluo-4 dye loading solution (Invitrogen, F36206) was prepared according to the manufacturer’s instructions by dissolving it in HEPES buffer supplemented with 2.5 mM probenecid. 50 μL dye loading solution was added to each well. Cells were incubated with the Fluo-4 dye for 60 min at 37 °C, then washed with 100 μL HEPES buffer. 100 μL HEPES buffer supplemented with 2.5 mM probenecid was then added to each well and incubated in 10 minutes at 37 °C before measurement. 33 μL of the test compounds (4x concentrated) were added automatically after baseline measurements. Intracellular calcium change was recorded on a NOVOstar instrument (BMG Labtech) at 37 °C with an excitation filter of 485 nm and an emission filters 520 nm. Data originate from three independent experiments in triplicates.

[3] = target: T1, GPR139; test: cAMP dynamic 2 assay measuring Gi activation (forskolin) in CHO-139; conditions: CHO-139
Description: The cAMP assay was performed as described in the work by Thomsen et al.[28] with few modifications. Breifly, CHO-139 and CHO-M1 was detached and resuspended to a concentration of 1 million cells/mL. 5 μL 2x concentrated compound (for Gs: +100 μM IBMX and for Gi: +100 μM IBMX +10 μM forskolin (Fsk)) and 5 μL cell suspension (5,000 cells/well) was mixed. The plate was sealed and incubated at room temperature for 30 min. Next, 10 μL detection reagents (lysis buffer containing 2.5% Eu^3+-anti-cAMP antibody and 2.5% cAMP-d2) was added and the plate was incubated for 1 hour at room temperature. The plate was read on an Envision (PerkinElmer, Waltham, MA, USA). The TR-FRET 665 nm/615 nm ratio, which is inversely proportional with the cAMP production, was used to determination the concentration of the cAMP response. […]
Supplementary Figure 2. cAMP dynamic 2 assay measuring Gi activation. 5,000 cells/well of CHO-139 (pink bars) or CHO-M1 (blue bars) cells are
incubated with the indicated compounds for 30 min at room temperature in the presence of 50 µM IBMX and 5 uM Fsk (expect “buffer (-Fsk) where only 50
µM IBMX is present). The straight line indicate the level of cAMP upon activation with 5 uM Fsk, and the grey area ±10% of the response. The responses are
one representative out of at two independent experiments performed in triplicates. Data points are means ± SD.

SMILES	EC50 [1] [µM]	EC50 [2] [nM]	Emax [2] [%]	Inhibition of the cAMP response induced by 5 μM forskolin (Gi), in words [3]	fold lower potency than 1a [2]
O=C(CN1CCCc2ccccc21)NNC(=O)c1ccc2c(c1)OCO2 [DL22]	4.18	442	105	none of the tested compounds were able to inhibit the cAMP response	–
COc1cc(OC)cc(C(=O)NNC(=O)C2CCCc3ccccc32)c1 (stereo not drawn) [DL24]	0.75	431	109	none of the tested compounds were able to inhibit the cAMP response	–
CCn1c(C)nc2cc(C(=O)NNC(=O)Cc3cccc4ccccc34)ccc21 [DL43]	9.57	364	97	none of the tested compounds were able to inhibit the cAMP response	~ 10 fold
O=C(Cc1cccc2ccccc12)NNC(=O)c1ccc2c(c1)OCO2 [DL126]	5.62	411	91	none of the tested compounds were able to inhibit the cAMP response	~ 10 fold
O=C(CNC(=O)c1ccc2c(c1)OCO2)NC1CCSc2ccc(F)cc21 (stereo not drawn) [DL130]	4.98	888	89	none of the tested compounds were able to inhibit the cAMP response	–
O=C(NCC(=O)N1CCCC1c1ccccc1)c1ccc2c(c1)OCO2 (stereo not drawn) [DL132]	4.16	505	94	none of the tested compounds were able to inhibit the cAMP response	–

From article PMC5103216, “Novel Agonist Bioisosteres and Common Structure-Activity Relationships for The Orphan G Protein-Coupled Receptor GPR139” (Scientific Reports, 2016)
